Measured values reported in PubChem BioAssay (NCI).
“And” between values parts separate entries of the source, which are not always exact repeats. Equal values may be shown once.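 All cell lines were grown in 96-well plates and treated with compound for 48 hours. GI50 marks 50% less growth. Definition used: TGI = concentration required for complete inhibition of growth.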

Tests used:
Experiment in all cases: NCI anticancer screen, dose series, 48 h
[1] = system: T-47D breast
[2] = system: OVCAR-3 ovarian
[3] = system: SN12C renal
[4] = system: MDA-MB-435
[5] = system: BT-549 breast
[6] = system: NCI-H226 lung
[7] = system: 786-0 renal
[8] = system: TK-10 renal
[9] = system: UACC-257 melanoma
[10] = system: K-562 leukemia

Structure (SMILES)	TGI [1]	TGI [2]	TGI [3]	TGI [4]	TGI [5]	TGI [6]	TGI [7]	TGI [8]	TGI [9]	TGI [10]	GI50 [1]	GI50 [2]	GI50 [3]	GI50 [4]	GI50 [5]	GI50 [6]	GI50 [8]	GI50 [9]	GI50 [10]
O=S(=O)(O)c1c(Cl)c(Cl)c(O)c2ncccc12	22 µM	42.3 µM	40.8 µM	30.5 µM	67.3 µM	64.3 µM	21.1 µM	27.4 µM	97.6 µM	> 48.5 µM	–	–	–	–	–	–	–	–	–
Cc1cc(-c2nc3cc(F)ccc3s2)ccc1N	> 100 µM	> 68 µM	> 100 µM	> 100 µM	> 100 µM	> 93.6 µM	> 79.4 µM	> 4.64 µM	> 69.9 µM	> 100 µM	–	–	–	–	–	–	–	–	–
OC1C2CCCCN2C[C@@H](O)[C@H]1O (some centres undefined)	> 100 µM	> 100 µM	> 100 µM	> 100 µM	> 100 µM	> 100 µM	> 100 µM	> 100 µM	> 100 µM	> 100 µM	–	–	–	–	–	–	–	–	–
O=C1CC(n2ccnc2)c2c(Cl)sc(Cl)c21 (centres undefined)	53.2 µM	30.3 µM	37.3 µM	49.6 µM	32.8 µM	77.1 µM	> 37.9 µM	45.1 µM	> 51.1 µM	> 38.1 µM	–	–	–	–	–	–	–	–	–
CCOC(=O)c1c2ccccc2n2c(=O)n(-c3ccc(OC)cc3)nnc12	92.7 µM	> 91.1 µM	> 100 µM	> 100 µM	> 80.7 µM	87.9 µM	51.1 µM	> 84.5 µM	> 100 µM	> 100 µM	–	–	–	–	–	–	–	–	–
CC(C)(C)OC(=O)N(O)CCCn1cnc2c(NC3CC3)ncnc21	> 100 µM	> 100 µM	> 100 µM	> 100 µM	> 100 µM	> 100 µM	> 100 µM	> 100 µM	> 100 µM	> 100 µM	–	–	–	–	–	–	–	–	–
CC1=CC2(C)C=C[C@@H]1C(=O)[C@@]1(C)CC[C@@](O)(C(C)C)[C@H]1CC2	88 µM	32.2 µM	39.4 µM	43.2 µM	60.7 µM	43.8 µM	33.3 µM	> 100 µM	34.1 µM	52.1 µM	–	–	–	–	–	–	–	–	–
COc1ccc2nc3ccc(OC)cc3c(S(=O)Cc3ccccc3)c2c1 (centres undefined)	4.87 µM	26.1 µM	21.3 µM	27.8 µM	27.4 µM	38.5 µM	4.78 µM	19.4 µM	20.9 µM	> 25.6 µM	–	–	–	–	–	–	–	–	–
CC1(C=O)CC(CCc2ccccc2)NC1Cc1ccc(O)cc1 (centres undefined)	40.9 µM	33.2 µM	31.6 µM	34 µM	39.4 µM	31.5 µM	29.2 µM	31.8 µM	29.6 µM	48.1 µM	–	–	–	–	–	–	–	–	–
COC(=O)CN1Cc2cc(C)cc(c2O)CN(CC(=O)OC)Cc2cc(C)cc(c2O)CN(CC(=O)OC)Cc2cc(C)cc(c2O)CN(CC(=O)OC)Cc2cc(C)cc(c2O)C1	50 µM and > 100 µM	32.1 µM and > 100 µM	50 µM and > 100 µM	50 µM and > 100 µM	50 µM and 77.7 µM	47.2 µM and > 100 µM	50 µM and > 100 µM	50 µM and > 100 µM	50 µM and > 100 µM	50 µM and > 100 µM	36.4 µM	5.7 µM	51.6 µM	45.9 µM	15.3 µM	11.1 µM	> 100 µM	50.4 µM	61.2 µM
COc1cc(-c2nc(N)c(C#N)c3c2CCS(=O)(=O)c2ccc(C)cc2-3)cc(OC)c1OC	> 100 µM	> 100 µM	> 100 µM	> 100 µM	> 100 µM	51.1 µM	> 100 µM	70 µM	> 100 µM	> 100 µM	–	–	–	–	–	–	–	–	–
COc1ccc(COCC[C@H](C)OC2OC(CO[Si](C)(C)C(C)(C)C)C(O)C(O)C2O)cc1 (some centres undefined)	> 100 µM	> 100 µM	> 100 µM	> 100 µM	> 100 µM	> 100 µM	> 100 µM	> 100 µM	> 100 µM	> 100 µM	–	–	–	–	–	–	–	–	–
COc1ccc(/C=C2/SC(=Nc3ccccc3)N(NC(=O)Cc3ccccc3)C2=O)cc1	> 100 µM	> 100 µM	> 100 µM	> 100 µM	> 100 µM	> 100 µM	> 100 µM	> 100 µM	> 100 µM	> 100 µM	–	–	–	–	–	–	–	–	–
O=C1c2ccccc2C(=O)c2c1oc1cc(O)c(Cl)cc21	48.6 µM	8.52 µM	22.5 µM	3.34 µM	15.5 µM	34.3 µM	20.9 µM	38.5 µM	7.78 µM	43.9 µM	–	–	–	–	–	–	–	–	–
CN(C)c1n2c3ccc([N+](=O)[O-])cc3n3c(N(C)C)[n+]4ccccc4c3c2c2cccc[n+]12	> 100 µM	> 100 µM	> 100 µM	> 100 µM	> 100 µM	> 100 µM	> 100 µM	> 100 µM	> 100 µM	> 100 µM	–	–	–	–	–	–	–	–	–
O=C(Nn1c(-c2ccccc2)nc2ccccc2c1=O)c1cccc([N+](=O)[O-])c1	> 100 µM	> 100 µM	> 100 µM	> 100 µM	> 100 µM	> 100 µM	> 100 µM	> 100 µM	> 100 µM	> 100 µM	–	–	–	–	–	–	–	–	–
Cc1ccc(NC(=O)c2cccc(OP(=O)(Nc3ccc(C)cc3)Nc3ccc(C)cc3)c2)cc1	> 100 µM	> 100 µM	> 100 µM	> 100 µM	> 100 µM	63.6 µM	> 100 µM	83.4 µM	> 100 µM	> 100 µM	–	–	–	–	–	–	–	–	–
c1ccc2c(c1)nc1ccccn12	> 100 µM	> 100 µM	> 100 µM	> 100 µM	> 100 µM	> 100 µM	> 100 µM	> 100 µM	> 100 µM	> 100 µM	–	–	–	–	–	–	–	–	–
CO[P@@]1(=O)O[C@@H](c2ccccc2)[C@H](O)[C@@]1(O)c1ccccc1	> 100 µM	> 100 µM	> 100 µM	> 100 µM	> 100 µM	> 100 µM	> 100 µM	> 100 µM	> 100 µM	> 100 µM	–	–	–	–	–	–	–	–	–
CCC1(c2ccc(OC)c(OC)c2)CCN(S(=O)(=O)c2ccc(C)cc2)C1 (centres undefined)	> 100 µM	> 100 µM	> 100 µM	> 100 µM	> 100 µM	> 100 µM	> 100 µM	> 100 µM	> 100 µM	> 10 µM	–	–	–	–	–	–	–	–	–
CC(CC(=O)N1C2CC3CCC2(CS1(=O)=O)C3(C)C)[Si](C)(C)C (centres undefined)	> 100 µM	> 100 µM	> 100 µM	> 100 µM	> 100 µM	> 100 µM	> 100 µM	> 100 µM	> 100 µM	> 100 µM	–	–	–	–	–	–	–	–	–
CC1(C)CC(=O)c2c(-c3ccc(Cl)cc3)c(C#N)c(=S)n(C3OC(CO)C(O)C(O)C3O)c2C1 (centres undefined)	89.6 µM	90.7 µM	> 100 µM	80.8 µM	> 100 µM	73 µM	> 100 µM	> 100 µM	98.2 µM	57.3 µM	–	–	–	–	–	–	–	–	–
CC(=O)N1C(c2[nH]c3ccccc3c2Cc2ccccc2)CCN1c1ccccc1 (centres undefined)	> 10 µM	> 10 µM	> 10 µM	> 10 µM	> 10 µM	> 10 µM	> 10 µM	> 10 µM	> 10 µM	> 10 µM	–	–	–	–	–	–	–	–	–
O=C(Nc1ccccc1)OCCN=c1c2ccccc2ccc2ccccc12	43.5 µM	44.2 µM	> 100 µM	79.6 µM	34.1 µM	57.1 µM	> 100 µM	> 100 µM	42.2 µM	51.1 µM	–	–	–	–	–	–	–	–	–
CCOC(=O)N1c2ccccc2N(C(=O)OCC)C1CC(=O)/C=C/c1ccccc1	> 100 µM	9.95 µM	14.4 µM	8.11 µM	9.84 µM	6.04 µM	10.6 µM	14.4 µM	21.9 µM	> 30.7 µM	–	–	–	–	–	–	–	–	–
O=c1[nH][nH]c(=O)n1Cc1ccccc1	> 100 µM	> 100 µM	> 100 µM	> 100 µM	> 100 µM	> 100 µM	> 100 µM	> 100 µM	> 100 µM	> 100 µM	–	–	–	–	–	–	–	–	–
CC/C(Cl)=N\OC(=O)Nc1ccc(F)c(Cl)c1	21.3 µM	8.03 µM	40.2 µM	39.4 µM	51.3 µM	51.3 µM	18 µM	31.3 µM	31.9 µM	3.26 µM	–	–	–	–	–	–	–	–	–
O=c1ccn(C/C=C/c2ccccc2)c(=S)n1C/C=C/c1ccccc1	> 100 µM	> 100 µM	> 100 µM	> 100 µM	> 100 µM	> 100 µM	> 100 µM	> 100 µM	> 100 µM	> 100 µM	–	–	–	–	–	–	–	–	–
Cc1nc(C)c(N2CCN(Cc3ccccc3)CC2)c(=O)[nH]1	> 100 µM	> 100 µM	> 100 µM	> 100 µM	> 100 µM	> 100 µM	> 100 µM	> 100 µM	> 100 µM	> 100 µM	–	–	–	–	–	–	–	–	–
CCCCCN1C(=O)C(Cc2ccccc2)N=C(c2ccc(O)cc2)c2cc(Cl)ccc21 (centres undefined)	12.4 µM	45.1 µM	> 39.6 µM	24.4 µM	33.4 µM	26.3 µM	27.3 µM	31.2 µM	23.7 µM	12.3 µM	–	–	–	–	–	–	–	–	–
